*1 amine or outer side, *2 acyl side, *3 side chain or, on linkers, in order; H or OH if unused. Where a SMILES comes first, the peptide text is derived from it. Side-chain parts run from the residue outwards. [ ]: non-standard residue; d: D form. The star is where a group is joined. C18 diacid = O=C(O)CCCCCCCCCCCCCCCCC(=O)*; γGlu = O=C(O)[C@H](CCC(=O)[*:2])N[*:1]; NMeI = CC[C@H](C)[C@H](NC)C(=O)O; Api = NC1(C(=O)O)CCNCC1; Abu = CC[C@H](N)C(=O)O; Dap = NC[C@H](N)C(=O)O; Aib = CC(C)(N)C(=O)O
What was measured:
CFR1R receptor = target: T1, CFR1R receptor (Homo sapiens, UniProt P34998); assay: Activity at anti-target CFR1R receptor, cAMP assay in CRF1R-overexpression CHO-K1 cells; assay type: cell-based; conditions: 100% = Sauvagine at 100 nM; for EC50: cAMP
T1 construct: host or cells: CHO-K1 (clone 2)
T1 sequence (P34998 24-415): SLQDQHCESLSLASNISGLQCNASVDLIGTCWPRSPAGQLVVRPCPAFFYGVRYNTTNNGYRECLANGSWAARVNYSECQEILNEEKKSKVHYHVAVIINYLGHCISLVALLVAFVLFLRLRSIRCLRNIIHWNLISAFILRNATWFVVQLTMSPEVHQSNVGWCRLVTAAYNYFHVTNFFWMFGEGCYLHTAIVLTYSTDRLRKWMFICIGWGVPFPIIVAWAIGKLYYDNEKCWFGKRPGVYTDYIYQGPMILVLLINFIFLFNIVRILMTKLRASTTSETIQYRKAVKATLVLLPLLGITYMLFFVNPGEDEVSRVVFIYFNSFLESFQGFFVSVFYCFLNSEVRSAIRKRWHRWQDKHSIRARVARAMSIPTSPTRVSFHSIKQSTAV
Summary of the method: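 Signal is normalised to 100 nM Sauvagine, taken as 100% activation, in clone 2 cells plated at a final 4000 cells/well from frozen stocks.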

human CRF2a receptor = target: T2, human CRF2a receptor (Homo sapiens, UniProt Q13324); assay: Activity at human CRF2a receptor, cAMP functional assay in TeloHEAC cells; assay type: cell-based; conditions: TeloHEAC cells stably expressing human CRF2a receptor, relative to urocortin 2 (100 nM = 100%)
T2 construct: expressed in transfected cells; host or cells: TeloHEAC cells
T2 sequence (Q13324 1-411): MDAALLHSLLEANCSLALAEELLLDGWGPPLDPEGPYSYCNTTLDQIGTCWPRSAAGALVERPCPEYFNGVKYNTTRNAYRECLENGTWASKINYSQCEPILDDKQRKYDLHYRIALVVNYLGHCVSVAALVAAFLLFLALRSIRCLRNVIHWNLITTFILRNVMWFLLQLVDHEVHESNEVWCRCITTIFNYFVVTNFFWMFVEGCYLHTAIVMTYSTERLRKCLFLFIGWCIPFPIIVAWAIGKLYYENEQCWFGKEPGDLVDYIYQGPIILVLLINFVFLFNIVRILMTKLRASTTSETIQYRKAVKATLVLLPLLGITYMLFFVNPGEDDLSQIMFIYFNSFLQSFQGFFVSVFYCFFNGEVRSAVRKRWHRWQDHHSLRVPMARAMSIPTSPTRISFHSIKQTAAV
Summary of the method: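 cAMP accumulation was measured by HTRF 665/620 nm ratio after 30 min at 37° C compound exposure (16 twofold dilutions) of CRF2a-expressing TeloHEAC cells, 10000/well, in HEPES-buffered HBSS plus IBMX. Activity was normalised to urocortin 2 at 100 nM (100%), and EC50 was the concentration giving half-maximal activation.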

Structure (SMILES) | Emax (% I) (CFR1R receptor) | EC50 (CFR1R receptor) | EC50 (human CRF2a receptor)
CC[C@H](C)[C@H](NC)C(=O)N[C@H](C(=O)N[C@@H](CC(C)C)C(=O)N[C@@H](CO)C(=O)N[C@@H](CC(C)C)C(=O)N[C@@H](CC(=O)O)C(=O)N[C@@H](C(=O)N1CCC[C@H]1C(=O)N[C@H](C(=O)N[C@@H](CCCCN)C(=O)N[C@@H](CC(C)C)C(=O)N[C@@H](CCCCNC(=O)CC[C@H](NC(=O)CCCCCCCCCCCCCCCCC(=O)O)C(=O)O)C(=O)N[C@@H](CCCCN)C(=O)N[C@H](C(=O)N[C@@H](CC(C)C)C(=O)N[C@@H](CC(C)C)C(=O)N[C@@H](CCC(=O)O)C(=O)N[C@@H](CCC(N)=O)C(=O)N[C@@H](CCC(=O)O)C(=O)N[C@@H](CCCCN)C(=O)N[C@@H](CCC(N)=O)C(=O)N[C@@H](CCCCN)C(=O)N[C@@H](CCCCN)C(=O)N[C@@H](CCC(N)=O)C(=O)N[C@@H](CCCNC(=N)N)C(=O)N[C@@H](CCC(=O)O)C(=O)N[C@@H](CCC(N)=O)C(=O)N[C@@H](C)C(=O)N[C@@H](CCC(=O)O)C(=O)N[C@H](C(=O)N[C@@H](CC(N)=O)C(=O)NC(C)(C)C(=O)N[C@@H](CCC(N)=O)C(=O)N[C@H](C(=O)N[C@@H](CC(C)C)C(=O)N[C@@H](C)C(=O)N[C@@H](CCC(N)=O)C(=O)N[C@H](C(N)=O)C(C)C)[C@@H](C)CC)[C@@H](C)O)[C@@H](C)CC)[C@@H](C)CC)C(C)C)C(C)C [compound 137] (H-[NMeI]VLSLD[dV]PIKLK([γGlu-C18 diacid])KILLEQEKQKKQREQAETN[Aib]QILAQV-NH2) | 9 % I | > 250000 pM | 70 pM
CC[C@H](C)[C@H](NC)C(=O)N[C@H](C(=O)N[C@@H](CC(C)C)C(=O)N[C@@H](CO)C(=O)N[C@@H](CC(C)C)C(=O)N[C@@H](CC(=O)O)C(=O)N[C@@H](C(=O)N1CCC[C@H]1C(=O)N[C@H](C(=O)N[C@@H](CCCCN)C(=O)N[C@@H](CC(C)C)C(=O)N[C@@H](CCCCNC(=O)CC[C@H](NC(=O)CCCCCCCCCCCCCCCCC(=O)O)C(=O)O)C(=O)N[C@@H](CCCCN)C(=O)N[C@H](C(=O)N[C@@H](CC(C)C)C(=O)N[C@@H](CC(C)C)C(=O)N[C@@H](CCC(=O)O)C(=O)N[C@@H](CCC(N)=O)C(=O)N[C@@H](CCC(=O)O)C(=O)N[C@@H](CCCCN)C(=O)N[C@@H](CCC(N)=O)C(=O)N[C@@H](CCCCN)C(=O)N[C@@H](CCCCN)C(=O)N[C@@H](CCC(N)=O)C(=O)N[C@@H](CCCNC(=N)N)C(=O)N[C@@H](CCC(=O)O)C(=O)N[C@@H](CCC(N)=O)C(=O)N[C@@H](C)C(=O)N[C@@H](CCC(=O)O)C(=O)N[C@H](C(=O)N[C@@H](CC(N)=O)C(=O)N[C@@H](C)C(=O)N[C@@H](CCC(N)=O)C(=O)N[C@H](C(=O)N[C@@H](CC(C)C)C(=O)N[C@@H](C)C(=O)N[C@@H](CCC(N)=O)C(=O)N[C@H](C(N)=O)C(C)C)[C@@H](C)CC)[C@@H](C)O)[C@@H](C)CC)[C@@H](C)CC)C(C)C)C(C)C [compound 138] (H-[NMeI]VLSLD[dV]PIKLK([γGlu-C18 diacid])KILLEQEKQKKQREQAETNAQILAQV-NH2) | 10 % I | > 250000 pM | 50 pM
CC[C@H](NC(=O)[C@H](CC(N)=O)NC(=O)[C@@H](NC(=O)[C@H](CCC(=O)O)NC(=O)[C@H](C)NC(=O)[C@H](CCC(N)=O)NC(=O)[C@H](CCC(=O)O)NC(=O)[C@H](CCCNC(=N)N)NC(=O)[C@H](CCC(N)=O)NC(=O)[C@H](CCCCN)NC(=O)[C@H](CCCCN)NC(=O)[C@H](CCC(N)=O)NC(=O)[C@H](CCCCN)NC(=O)[C@H](CCC(=O)O)NC(=O)[C@H](CCC(N)=O)NC(=O)[C@H](CCC(=O)O)NC(=O)[C@H](CC(C)C)NC(=O)[C@H](CC(C)C)NC(=O)[C@@H](NC(=O)[C@H](CCCCN)NC(=O)[C@H](CCCCNC(=O)CC[C@H](NC(=O)CCCCCCCCCCCCCCCCC(=O)O)C(=O)O)NC(=O)[C@H](CC(C)C)NC(=O)[C@H](CCCCN)NC(=O)[C@@H](NC(=O)[C@@H]1CCCN1C(=O)[C@H](NC(=O)[C@H](CC(=O)O)NC(=O)[C@H](CC(C)C)NC(=O)[C@H](CO)NC(=O)[C@H](CC(C)C)NC(=O)[C@@H](NC(=O)[C@@H](NC)[C@@H](C)CC)C(C)C)C(C)C)[C@@H](C)CC)[C@@H](C)CC)[C@@H](C)O)C(=O)N[C@@H](CCC(N)=O)C(=O)N[C@H](C(=O)N[C@@H](CC(C)C)C(=O)N[C@@H](C)C(=O)N[C@@H](CCC(N)=O)C(=O)N[C@H](C(N)=O)C(C)C)[C@@H](C)CC [compound 139] (H-[NMeI]VLSLD[dV]PIKLK([γGlu-C18 diacid])KILLEQEKQKKQREQAETN[Abu]QILAQV-NH2) | 13 % I | > 250000 pM | 50 pM

More lines, now with the values ahead:

Emax (% I) (CFR1R receptor) | EC50 (CFR1R receptor) | EC50 (human CRF2a receptor) | Structure (SMILES)
14 % I | > 250000 pM | 170 pM | CC[C@H](C)[C@H](NC)C(=O)N[C@H](C(=O)N[C@@H](CC(C)C)C(=O)N[C@@H](CO)C(=O)N[C@@H](CC(C)C)C(=O)N[C@@H](CC(=O)O)C(=O)N[C@@H](C(=O)N1CCC[C@H]1C(=O)N[C@H](C(=O)N[C@@H](CCCCN)C(=O)N[C@@H](CC(C)C)C(=O)N[C@@H](CCCCNC(=O)CC[C@H](NC(=O)CCCCCCCCCCCCCCCCC(=O)O)C(=O)O)C(=O)N[C@@H](CCCCN)C(=O)N[C@H](C(=O)N[C@@H](CC(C)C)C(=O)N[C@@H](CC(C)C)C(=O)N[C@@H](CCC(=O)O)C(=O)N[C@@H](CCC(N)=O)C(=O)N[C@@H](CCC(=O)O)C(=O)N[C@@H](CCCCN)C(=O)N[C@@H](CCC(N)=O)C(=O)N[C@@H](CCCCN)C(=O)N[C@@H](CCCCN)C(=O)N[C@@H](CCC(N)=O)C(=O)N[C@@H](CCCNC(=N)N)C(=O)N[C@@H](CCC(=O)O)C(=O)N[C@@H](CCC(N)=O)C(=O)N[C@@H](C)C(=O)N[C@@H](CCC(=O)O)C(=O)N[C@H](C(=O)N[C@@H](CC(N)=O)C(=O)N[C@@H](CN)C(=O)N[C@@H](CCC(N)=O)C(=O)N[C@H](C(=O)N[C@@H](CC(C)C)C(=O)N[C@@H](C)C(=O)N[C@@H](CCC(N)=O)C(=O)N[C@H](C(N)=O)C(C)C)[C@@H](C)CC)[C@@H](C)O)[C@@H](C)CC)[C@@H](C)CC)C(C)C)C(C)C [compound 140] (H-[NMeI]VLSLD[dV]PIKLK([γGlu-C18 diacid])KILLEQEKQKKQREQAETN[Dap]QILAQV-NH2)
32 % I | > 250000 pM | 160 pM | CC[C@H](C)[C@H](NC)C(=O)N[C@H](C(=O)N[C@@H](CC(C)C)C(=O)N[C@@H](CO)C(=O)N[C@@H](CC(C)C)C(=O)N[C@@H](CC(=O)O)C(=O)N[C@@H](C(=O)N1CCC[C@H]1C(=O)N[C@H](C(=O)N[C@@H](CCCCN)C(=O)N[C@@H](CC(C)C)C(=O)N[C@@H](CCCCNC(=O)CC[C@H](NC(=O)CCCCCCCCCCCCCCCCC(=O)O)C(=O)O)C(=O)N[C@@H](CCCCN)C(=O)N[C@H](C(=O)N[C@@H](CC(C)C)C(=O)N[C@@H](CC(C)C)C(=O)N[C@@H](CCC(=O)O)C(=O)N[C@@H](CCC(N)=O)C(=O)N[C@@H](CCC(=O)O)C(=O)N[C@@H](CCCCN)C(=O)N[C@@H](CCC(N)=O)C(=O)N[C@@H](CCCCN)C(=O)N[C@@H](CCCCN)C(=O)N[C@@H](CCC(N)=O)C(=O)N[C@@H](CCCNC(=N)N)C(=O)N[C@@H](CCC(=O)O)C(=O)N[C@@H](CCC(N)=O)C(=O)N[C@@H](C)C(=O)N[C@@H](CCC(=O)O)C(=O)N[C@H](C(=O)N[C@@H](CC(N)=O)C(=O)NC1(C(=O)N[C@@H](CCC(N)=O)C(=O)N[C@H](C(=O)N[C@@H](CC(C)C)C(=O)N[C@@H](C)C(=O)N[C@@H](CCC(N)=O)C(=O)N[C@H](C(N)=O)C(C)C)[C@@H](C)CC)CCNCC1)[C@@H](C)O)[C@@H](C)CC)[C@@H](C)CC)C(C)C)C(C)C [compound 141] (H-[NMeI]VLSLD[dV]PIKLK([γGlu-C18 diacid])KILLEQEKQKKQREQAETN[Api]QILAQV-NH2)
